Reference: patent US10351594B2, “Process for preparing compounds having triple activities of thrombolysis, antithrombosis, and radical scavenging” (Shanghai Lumosa Therapeutics Co., Ltd., priority 2013, dated 2019)
“Also recorded” adds a separate entry of the source. Marks after values point to notes of the source that are not given here.

Columns and labels:
[1] = system: thrombus (rat arteriovenous bypass thrombolysis model); test: Thrombolytic activity via intravenous administration, rat arteriovenous bypass thrombolysis model; type: in vivo, male SD rats; settings: for Weight reduction in thrombus: n = 10; for Thrombolytic activity, result in words: intravenous, 0.1 nmol/kg (5Ak also 0.01 and 0.001 nmol/kg), urokinase 20000 U/kg
Description: 200-220 g male SD rats were anesthetized with 20% urethane solution (6 mL/kg, ip). Anesthetized rats were fixed in a supine position, and the right common carotid artery was separated, clamped at the proximal end with an arterial clip, and penetrated with a suture at the proximal and distal ends, respectively. The suture at the distal end is clipped tightly by a hemostatic clamp at the skin/fur. Cannulation was performed at the distal end, the arterial clamp was loosened, and about 1 ml arterial blood was discharged into a 1 mL EP vial. 0.1 mL rat arterial blood was injected into a vertically fixed glass tube (15 mm in length, with an inner diameter of 2.5 mm and an outer diameter of 5.0 mm, sealed with a rubber stopper at the bottom), into which was immediately inserted a thrombus immobilization screw made of stainless steel. […] 40 min after the blood coagulated, the rubber stopper at the bottom of the glass tube was removed, the stem of the thrombus immobilization screw was fixed by forceps, and the thrombus-wrapped thrombus immobilization screw was carefully taken out from the glass tube and precisely weighted.
A bypass cannula was composed of 3 segments. The middle segment was a polyethylene tube having a length of 60 mm and an inner diameter of 3.5 mm. The segments on both ends were similar polyethylene tubes having a length of 100 mm, an inner diameter of 1 mm and an outer diameter of 2 mm, one end of which was pulled to form a tip, with an outer diameter of 1.0 mm (used in inserting into the rat carotid artery or vein), the other end of which was sheathed by a polyethylene tube having a length of 7 mm and an outer diameter of 3.5 mm (thickened, used in inserting into the polyethylene tube of the middle segment). The inner wall of the 3-segment cannula was entirely silylated. The thrombus-wrapped thrombus immobilization screw was placed into the polyethylene tube of the middle segment, and both ends of the tube sheath the thickened ends of two polyethylene tubes. The cannula was filled with a heparin solution in normal saline (50 IU/kg) through the tip end by using an injector and was ready for use.
The left external jugular vein of the rat was separated and penetrated with a suture at the proximal and distal ends respectively, and the distal end was ligated. An incision was carefully made on the exposed left external jugular vein, and the tip of the bypass cannula prepared as described above was inserted into the proximal end of the incision in the left external jugular vein, away from the stem of the thrombus immobilization screw in the middle segment of the bypass cannula (which accommodated the accurately weighed thrombus immobilization screw). A precise amount of heparin in saline (50 IU/kg) was injected through the tip at the other end by using an injector. At this moment, without removing the injector from the polyethylene tube, the tube between the injector and the polyethylene tube was clamped with a hemostatic clamp. The blood flow was stopped by clamping the proximal end of the right common carotid artery with an arterial clip, and an incision was cut carefully across the common carotid artery near the clip. The injector was pulled out of the polyethylene tube through the tip, and the tip of the polyethylene tube was then inserted into the proximal end of the artery incision. Both ends of the bypass cannula were fixed to the artery or vein with #4 sutures.
A scalp needle was used to pass saline solution, a urokinase in saline solution or varied concentrations of the compounds in saline solution through the middle section of the bypass cannula (which accommodated the accurately weighed thrombus immobilization screw) to a position at the proximal vein and away from the thrombus immobilization screw. The artery clip was then removed to allow blood to flow from the artery to the vein through the bypass cannula. A rat arteriovenous bypass thrombolysis model was thus established. […]

[2] = Hydroxyl free radical scavenging activity (DMPO signal peak height); type: biochemical; settings: n = 6; read-out: EC50 of scavenging •OH
Description: 11.316 mg DMPO ([…], Sigma) was dissolved in 1 mL of pure water to obtain 0.1 M DMPO solution. […] FeSO4.7H2O was dissolved in 1 mL of pure water to obtain 10 mM solution. 30% medical H2O2 was diluted to 0.2%.
The first peak height of the OH signal of 2.5 μL FeSO4.7H2O solution+2.5 μL DMPO solution+5 μL H2O2 solution+5 μL water was measured and repeated for 6 times. This peak height defined as the known peak height of OH signal. The first peak height of the OH signal of 2.5 μL FeSO4.7H2O solution+2.5 μL DMPO solution+5 μL H2O2 solution+5 μL solution of one of the compounds 5Aa-p was measured and repeated for 6 times. This peak height defined as the residual peak height of the OH signal scavenged by one of the compounds 5Aa-p. Scavenging ratio=(known peak height of OH signal−residual peak height of OH signal of compounds 5Aa-p)/known peak height of OH signal

[3] = Superoxide anionic radical scavenging activity (xanthine/xanthine oxidase, DMPO); type: biochemical; settings: n = 6
Description: […] xanthine was dissolved in 1 mL of pure water to obtain 0.5 M xanthine solution (milk white color, largely insoluble). Commercially available raw solution of xanthine oxidase was diluted 10 folds to obtain solution of xanthine oxidase. Saturated DETAPAC solution was diluted 20 folds to obtain 0.9 mM solution. 11.316 mg DMPO was dissolved in 1 mL of pure water to obtain 0.1 M DMPO solution.
5 μL DMPO solution+5 μL DETAPAC solution+5 μL xanthine solution+5 μL xanthine oxidase solution+5 μL compounds 5Aa-p solution
The first peak height of superoxide anion signal of 5 μL DMPO solution+5 μL DETAPAC solution+5 μL xanthine solution+5 μL xanthine oxidase solution+5 μL water was measured and repeated for 6 times. This peak height defined as the known peak height of superoxide anion signal. The first peak height of superoxide anion signal of 5 μL DMPO solution+5 μL DETAPAC solution+5 μL xanthine solution+5 μL xanthine oxidase solution+5 μL solution of one of compounds 5Aa-p was measured and repeated for 6 times. This peak height defined as the residual peak height of the superoxide anion signal scavenged by one of the compounds 5Aa-p. Scavenging ratio=(known peak height of superoxide anion signal−residual peak height of superoxide anion signal of compounds 5Aa-p)/known peak height of superoxide anion signal

[4] = rat, intravenous injection, 5Aa-p 0.1 nmol/kg, 1 hour

Compound | EC50 [2] [µM] | EC50 [3] [µM] | Weight reduction in thrombus [1, 4] | Thrombolytic activity, result in words ([1]; rat) | Weight reduction in thrombus ([1]; Table 2, 5Ak 0.001 nmol/kg i.v.) | Weight reduction in thrombus ([1]; Table 2, 5Ak 0.01 nmol/kg i.v.) [b mg] | Weight reduction in thrombus ([1]; Table 2, 5Ak 0.1 nmol/kg i.v.)
3S-6,7-dihydroxy-1,1-dimethyl-1,2,3,4-tetrahydro-isoquinoline-3-acyl-Lys(Pro-Ala-Val) [Compound 5Ab] | 471 ± 71 | 471 ± 34 | 17.12 ± 1.64^a mg |  |  |  | 
C[C@H](NC(=O)[C@@H]1CCCN1)C(=O)N[C@@H](Cc1ccc(O)cc1)C(=O)NCCCC[C@H](NC(=O)[C@@H]1Cc2cc(O)c(O)cc2C(C)(C)N1)C(=O)O [Compound 5Ad, 3S-6,7-dihydroxy-1,1-dimethyl-1,2,3,4-tetrahydro-isoquinoline-3-acyl-Lys(Pro-Ala-Tyr)] | 369 ± 32 | 354 ± 71 | 18.11 ± 2.48^b mg | higher thrombolytic activity |  |  | 
C[C@H](NC(=O)[C@@H]1CCCN1)C(=O)N1CCC[C@H]1C(=O)NCCCC[C@H](NC(=O)[C@@H]1Cc2cc(O)c(O)cc2C(C)(C)N1)C(=O)O [Compound 5Ae, 3S-6,7-dihydroxy-1,1-dimethyl-1,2,3,4-tetrahydro-isoquinoline-3-acyl-Lys(Pro-Ala-Pro)] | 466 ± 47 | 481 ± 45 | 13.63 ± 1.92^a mg |  |  |  | 
C[C@H](NC(=O)[C@@H]1CCCN1)C(=O)N[C@@H](Cc1ccccc1)C(=O)NCCCC[C@H](NC(=O)[C@@H]1Cc2cc(O)c(O)cc2C(C)(C)N1)C(=O)O [Compound 5Af, 3S-6,7-dihydroxy-1,1-dimethyl-1,2,3,4-tetrahydro-isoquinoline-3-acyl-Lys(Pro-Ala-Phe)] | 544 ± 43 | 485 ± 31 | 17.92 ± 1.69^b mg | comparable to that of urokinase; also recorded: higher thrombolytic activity |  |  | 
CC[C@H](C)[C@H](NC(=O)[C@H](C)NC(=O)[C@@H]1CCCN1)C(=O)NCCCC[C@H](NC(=O)[C@@H]1Cc2cc(O)c(O)cc2C(C)(C)N1)C(=O)O [Compound 5Ai, 3S-6,7-dihydroxy-1,1-dimethyl-1,2,3,4-tetrahydro-isoquinoline-3-acyl-Lys(Pro-Ala-Ile)] | 495 ± 61 | 452 ± 64 | 16.00 ± 2.03^a mg |  |  |  | 
C[C@H](NC(=O)[C@@H]1CCCN1)C(=O)N[C@@H](CCCCN)C(=O)NCCCC[C@H](NC(=O)[C@@H]1Cc2cc(O)c(O)cc2C(C)(C)N1)C(=O)O [Compound 5Ak, 3S-6,7-dihydroxy-1,1-dimethyl-1,2,3,4-tetrahydro-isoquinoline-3-acyl-Lys(Pro-Ala-Lys)] | 422 ± 82 | 363 ± 94 | 19.38 ± 2.81^b mg | comparable to that of urokinase; also recorded: higher thrombolytic activity; also recorded: highest thrombolytic activity; also recorded: obvious dose-effect relationship | 11.73 ± 2.15 ^c mg | 14.62 ± 2.46 | 21.61 ± 4.62^a mg
CC(C)C[C@H](NC(=O)[C@H](C)NC(=O)[C@@H]1CCCN1)C(=O)NCCCC[C@H](NC(=O)[C@@H]1Cc2cc(O)c(O)cc2C(C)(C)N1)C(=O)O [Compound 5Al, 3S-6,7-dihydroxy-1,1-dimethyl-1,2,3,4-tetrahydro-isoquinoline-3-acyl-Lys(Pro-Ala-Leu)] | 489 ± 32 | 414 ± 97 | 14.65 ± 2.86^a mg |  |  |  | 
C[C@H](NC(=O)[C@@H]1CCCN1)C(=O)N[C@@H](CCC(N)=O)C(=O)NCCCC[C@H](NC(=O)[C@@H]1Cc2cc(O)c(O)cc2C(C)(C)N1)C(=O)O [Compound 5Am, 3S-6,7-dihydroxy-1,1-dimethyl-1,2,3,4-tetrahydro-isoquinoline-3-acyl-Lys(Pro-Ala-Gln)] | 466 ± 77 | 371 ± 45 | 16.65 ± 2.52^a mg |  |  |  | 
C[C@H](NC(=O)[C@@H]1CCCN1)C(=O)N[C@@H](CC(N)=O)C(=O)NCCCC[C@H](NC(=O)[C@@H]1Cc2cc(O)c(O)cc2C(C)(C)N1)C(=O)O [Compound 5An, 3S-6,7-dihydroxy-1,1-dimethyl-1,2,3,4-tetrahydro-isoquinoline-3-acyl-Lys(Pro-Ala-Asn)] | 572 ± 72 | 383 ± 94 | 16.44 ± 2.32^a mg |  |  |  | 

Now from value to compound, other results behind:

EC50 [2] [µM] | EC50 [3] [µM] | Compound | Weight reduction in thrombus [1, 4] | Thrombolytic activity, result in words ([1]; rat) | Weight reduction in thrombus ([1]; Table 2, 5Ak 0.001 nmol/kg i.v.) | Weight reduction in thrombus ([1]; Table 2, 5Ak 0.01 nmol/kg i.v.) [b mg] | Weight reduction in thrombus ([1]; Table 2, 5Ak 0.1 nmol/kg i.v.)
459 ± 66 | 477 ± 56 | 3S-6,7-dihydroxy-1,1-dimethyl-1,2,3,4-tetrahydro-isoquinoline-3-acyl-Lys(Pro-Ala-Ala) [Compound 5Aa] | 19.35 ± 2.76^b mg | comparable to that of urokinase; also recorded: higher thrombolytic activity |  |  | 
422 ± 61 | 467 ± 94 | 3S-6,7-dihydroxy-1,1-dimethyl-1,2,3,4-tetrahydro-isoquinoline-3-acyl-Lys(Pro-Ala-Gly) [Compound 5Ag] | 18.98 ± 2.14^b mg | comparable to that of urokinase; also recorded: higher thrombolytic activity |  |  | 
378 ± 85 | 366 ± 71 | C[C@H](NC(=O)[C@@H]1CCCN1)C(=O)N[C@@H](Cc1c[nH]c2ccccc12)C(=O)NCCCC[C@H](NC(=O)[C@@H]1Cc2cc(O)c(O)cc2C(C)(C)N1)C(=O)O [Compound 5Ac, 3S-6,7-dihydroxy-1,1-dimethyl-1,2,3,4-tetrahydro-isoquinoline-3-acyl-Lys(Pro-Ala-Trp)] | 16.23 ± 2.81^a mg |  |  |  | 
413 ± 73 | 401 ± 72 | C[C@H](NC(=O)[C@@H]1CCCN1)C(=O)N[C@@H](CO)C(=O)NCCCC[C@H](NC(=O)[C@@H]1Cc2cc(O)c(O)cc2C(C)(C)N1)C(=O)O [Compound 5Ah, 3S-6,7-dihydroxy-1,1-dimethyl-1,2,3,4-tetrahydro-isoquinoline-3-acyl-Lys(Pro-Ala-Ser)] | 17.10 ± 1.79^a mg |  |  |  | 
416 ± 28 | 417 ± 95 | C[C@H](NC(=O)[C@@H]1CCCN1)C(=O)N[C@H](C(=O)NCCCC[C@H](NC(=O)[C@@H]1Cc2cc(O)c(O)cc2C(C)(C)N1)C(=O)O)[C@@H](C)O [Compound 5Aj, 3S-6,7-dihydroxy-1,1-dimethyl-1,2,3,4-tetrahydro-isoquinoline-3-acyl-Lys(Pro-Ala-Thr)] | 15.23 ± 2.45^a mg |  |  |  | 
